We go through 22 compounds from US10813868B2, “Method of improving hair volume” (priority 2014, dated 2020).

The nature of assay [1]: Hair switch volume test (switches dosed, combed straight, dried overnight, image projection measured). Particulars: for % benefit: 2% solution; for Volume: same batch of switches, 0.2 ml of 2% solution; for Volume / volume (projection of the switch image on to the screen): combed straight, dried overnight; for volume (projection of the switch image on to the screen): 0.2 ml of 2% solution per 2 g switch. On the procedure: Dark brown European wavy #6 switches (from 2 different batches) of length 25 cm and weight 2 g were dosed with 0.2 ml each of 2% glucosamine.HCl salt solution. Control switches were wetted with water. All switches were combed straight and left to dry overnight. When dry the switches were combed straight and pictures taken. […] (Here volume refers to the projection of the switch image on to the screen and is given in mm^2).
Dark brown European wavy #6 switches of length 25 cm and weight 2 gms (from the same batch of switches), were dosed with 0.2 ml each of 2% solutions of various mono and diglucosamine salts. Control switches were treated with water.
All switches were combed straight and left to dry overnight.
When dry the switches were combed straight and pictures taken. […] (Here volume refers to the projection of the switch image on to the screen and is given in mm^2). The percentage benefit (i.e. increase in volume) with respect to control (water) is also given.

Assay [2] can be described thus: Half head test on a mannequin head, styled with a blow dryer. Particulars: 2% solution on left half vs water on right half; picture the day following styling. The procedure:
FIG. 1 is an image of a mannequin head taken the day following a test performed with one half (right hand side) treated with water and the other half (left hand side) treated with 2% glucosamine.HCI salt solution and followed by styling with a blow dryer. A half head test on a mannequin head was performed with one half (right hand side) treated with water and the other half (left hand side) treated with 2% glucosamine.HCl salt solution. The head was styled with a blow dryer for volume up benefit. FIG. 1 is a picture taken the day following the styling.

[3] abbreviates: Example 2, increase in volume with respect to control (water).

In the case of diglucosamine glutamate, the “% benefit” value in assay [1] (setting [3]) is given as 38.0%. In addition, the Volume in assay [1] (Example 2) came to 19575 mm^2.

Regarding `NCC(=O)O.N[C@H]1C(O)O[C@H](CO)[C@@H](O)[C@@H]1O` (some centres unmarked) [glucosamine glycinate], the “% benefit” value in assay [1] (setting [3]) is given as 39.2%. Also, the Volume in assay [1] (Example 2) was 19748 mm^2.

On to diglucosamine succinate, for which the “% benefit” value in assay [1] (setting [3]) is 20.8%. This compound also showed a Volume in assay [1] (Example 2) of 17136 mm^2.

Turning to `N[C@H]1C(O)O[C@H](CO)[C@@H](O)[C@@H]1O.O=C(O)/C=C/C(=O)O` (some centres unmarked) [glucosamine fumarate], the “% benefit” value in assay [1] (setting [3]) amounted to 18.5%. This compound showed a Volume in assay [1] (Example 2) of 16802 mm^2.

Consider `N[C@H]1C(O)O[C@H](CO)[C@@H](O)[C@@H]1O.O=C(O)/C=C\C(=O)O` (some centres unmarked) [glucosamine maleate], for which the “% benefit” value in assay [1] (setting [3]) worked out at 30.1%. For the same compound, in assay [1] (Example 2), the Volume is on record as 18450 mm^2.

As for diglucosamine fumarate, the “% benefit” value in assay [1] (setting [3]) amounted to 38.0%. In assay [1] (Example 2), this compound gave a Volume of 19575 mm^2.

Consider diglucosamine glutarate, for which, in assay [1] (setting [3]), the “% benefit” value is given as 35.6%. Besides, the Volume in assay [1] (Example 2) turned out to be 19234 mm^2.

Take glucosamine glutamate: the “% benefit” value in assay [1] (setting [3]) is reported as 30.9%. In assay [1] (Example 2), the Volume is reported as 18563 mm^2.

On to diglucosamine maleate, for which the “% benefit” value in assay [1] (setting [3]) is given as 34.3%. The Volume in assay [1] (Example 2) is given as 19053 mm^2.

For the compound diglucosamine aspartate, in assay [1] (setting [3]), the “% benefit” value was 39.5%. Also, the Volume in assay [1] (Example 2) is 19780 mm^2.

With `N[C@H]1C(O)O[C@H](CO)[C@@H](O)[C@@H]1O.O=C(O)CCC(=O)O` (some centres unmarked) [glucosamine succinate], the “% benefit” value in assay [1] (setting [3]) is 13.5%. The compound further registered a Volume in assay [1] (Example 2) of 16102 mm^2.

In the case of diglucosamine pimelate, the “% benefit” value in assay [1] (setting [3]) is given as 27.1%. This compound also showed a Volume in assay [1] (Example 2) of 18021 mm^2.

For the compound diglucosamine adipate, the “% benefit” value in assay [1] (setting [3]) amounted to 28.3%. In addition, in assay [1] (Example 2), the Volume is on record as 18189 mm^2.

For the compound `CC(O)C(=O)O.N[C@H]1C(O)O[C@H](CO)[C@@H](O)[C@@H]1O` (some centres unmarked) [glucosamine lactate], in assay [1] (setting [3]), the “% benefit” value was determined as 33.6%. This compound also yielded a Volume in assay [1] (Example 2) of 18944 mm^2.

glucosamine glutarate: in assay [1] (setting [3]), the “% benefit” value stood at 9.1%. This compound also returned a Volume in assay [1] (Example 2) of 15475 mm^2.

As for “glucosamine 2-pyrrolidone-5-carboxylate [glucosamine PCA]”, in assay [1] (setting [3]), the “% benefit” value is on record as 37.5%. The same compound yielded a Volume in assay [1] (Example 2) of 19505 mm^2.

As to `Cl.N[C@H]1C(O)O[C@H](CO)[C@@H](O)[C@@H]1O` (some centres unmarked) [glucosamine•HCl, glucosamine hydrochloride], the results for the “volume (projection of the switch image on to the screen)” value in assay [1] (Batch 1 switches) and in assay [1] (Batch 2 switches) were 14236 mm^2 and 16851 mm^2, respectively. The “% benefit” value was found to be 6.7% in assay [1] (Batch 1 switches, increase in volume vs water control) and 7.3% in assay [1] (Batch 2 switches, increase in volume vs water control). Also, the “volumising benefit (visual comparison)” value in assay [2] is “clearly evident”.

For glucosamine pimelate, the “% benefit” value in assay [1] (setting [3]) amounted to 13.4%. The compound also displayed a Volume in assay [1] (Example 2) of 16088 mm^2.

With glucosamine aspartate, the “% benefit” value in assay [1] (setting [3]) is reported as 30.9%. This compound also displayed a Volume in assay [1] (Example 2) of 18566 mm^2.

As to glucosamine nicotinate, in assay [1] (setting [3]), the “% benefit” value is recorded as 41.6%. The compound further registered a Volume in assay [1] (Example 2) of 20087 mm^2.

In the case of diglucosamine malonate, the “% benefit” value in assay [1] (setting [3]) was 34.3%. The Volume in assay [1] (Example 2) is on record as 19053 mm^2.

As to `N[C@H]1C(O)O[C@H](CO)[C@@H](O)[C@@H]1O.O=C(O)CC(=O)O` (some centres unmarked) [glucosamine malonate], in assay [1] (setting [3]), the “% benefit” value is listed as 21.6%. In assay [1] (Example 2), the Volume was found to be 17244 mm^2.
